Each block holds one molecule with its values, some of them ahead of it.
Tested on: 898857-211-R-J1-PDC complex spheroids, growth % test/control
Experiment: Anticancer human tumor 898857-211-R-J1-PDC patient-derived melanoma cell line growth inhibition [RAS]
Conditions: for IC50: curve of first compound; for viability, T/C: stronger effect = lower value
Summary of the method: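 Tumour cells grown as complex spheroids with HUVEC endothelial cells and mesenchymal stem cells, treated with RAS pathway inhibitor combinations. Each agent spans half-log steps from near clinical Cmax, or 10 microM where Cmax is unknown.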

[1] = second compound 0.0316 µM, first compound 0.0316 µM
[2] = second compound 0.0316 µM, first compound 0.1 µM
[3] = second compound 0.0316 µM, first compound 0.316 µM
[4] = second compound 0.0316 µM, first compound 1 µM
[5] = second compound 0.1 µM, first compound 0.0316 µM
[6] = second compound 0.1 µM, first compound 0.1 µM
[7] = second compound 0.1 µM, first compound 0.316 µM
[8] = second compound 0.1 µM, first compound 1 µM
[9] = second compound 0.316 µM, first compound 0.0316 µM
[10] = second compound 0.316 µM, first compound 0.1 µM
[11] = second compound 0.316 µM, first compound 0.316 µM
[12] = second compound 0.316 µM, first compound 1 µM
[13] = second compound 1 µM, first compound 0.0316 µM
[14] = second compound 1 µM, first compound 0.1 µM
[15] = second compound 1 µM, first compound 0.316 µM
[16] = second compound 1 µM, first compound 1 µM
[17] = second compound 3.16 µM, first compound 0.0316 µM
[18] = second compound 3.16 µM, first compound 0.1 µM
[19] = second compound 3.16 µM, first compound 0.316 µM
[20] = second compound 3.16 µM, first compound 1 µM
[21] = second compound 10 µM, first compound 0.0316 µM
[22] = second compound 10 µM, first compound 0.1 µM
[23] = second compound 10 µM, first compound 0.316 µM
[24] = second compound 10 µM, first compound 1 µM
[25] = second compound 0.0316 µM, first compound 0.000949 µM
[26] = second compound 0.0316 µM, first compound 0.003 µM
[27] = second compound 0.0316 µM, first compound 0.00949 µM
[28] = second compound 0.0316 µM, first compound 0.03 µM
[29] = second compound 0.0316 µM, first compound 0.0949 µM
[30] = second compound 0.0316 µM, first compound 0.3 µM
[31] = second compound 0.1 µM, first compound 0.000949 µM
[32] = second compound 0.1 µM, first compound 0.003 µM
[33] = second compound 0.1 µM, first compound 0.00949 µM
[34] = second compound 0.1 µM, first compound 0.03 µM
[35] = second compound 0.1 µM, first compound 0.0949 µM
[36] = second compound 0.1 µM, first compound 0.3 µM
[37] = second compound 0.316 µM, first compound 0.000949 µM
[38] = second compound 0.316 µM, first compound 0.003 µM
[39] = second compound 0.316 µM, first compound 0.00949 µM
[40] = second compound 0.316 µM, first compound 0.03 µM
[41] = second compound 0.316 µM, first compound 0.0949 µM
[42] = second compound 0.316 µM, first compound 0.3 µM
[43] = second compound 1 µM, first compound 0.000949 µM
[44] = second compound 1 µM, first compound 0.003 µM
[45] = second compound 1 µM, first compound 0.00949 µM
[46] = second compound 1 µM, first compound 0.03 µM
[47] = second compound 1 µM, first compound 0.0949 µM
[48] = second compound 1 µM, first compound 0.3 µM
[49] = second compound 3.16 µM, first compound 0.000949 µM
[50] = second compound 3.16 µM, first compound 0.003 µM
[51] = second compound 3.16 µM, first compound 0.00949 µM
[52] = second compound 3.16 µM, first compound 0.03 µM
[53] = second compound 3.16 µM, first compound 0.0949 µM
[54] = second compound 3.16 µM, first compound 0.3 µM
[55] = second compound 10 µM, first compound 0.000949 µM
[56] = second compound 10 µM, first compound 0.003 µM
[57] = second compound 10 µM, first compound 0.00949 µM
[58] = second compound 10 µM, first compound 0.03 µM
[59] = second compound 10 µM, first compound 0.0949 µM
[60] = second compound 10 µM, first compound 0.3 µM
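Also: spheroids exposed to compound for seven days before readout.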
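For viability, T/C in this document: 100% = DMSO vehicle control wells.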

IC50 (second compound 0.0316 µM): > 1000 nM
IC50 (second compound 0.1 µM): > 1000 nM
IC50 (second compound 0.316 µM): > 1000 nM
IC50 (second compound 1 µM): > 1000 nM
IC50 (second compound 3.16 µM): > 1000 nM
IC50 (second compound 10 µM): < 3.16 nM
SMILES: C=CC(=O)N1CCN(c2nc(OCC3CCCN3C)nc3c(F)c(-c4nc(N)cc(C)c4C(F)(F)F)c(Cl)cc23)C(C)C1 (stereo not drawn) + C#Cc1c(F)ccc2cc(O)cc(-c3ncc4c(N5CC6CCC(C5)N6)nc(OCC56CCCN5CC(F)C6)nc4c3F)c12
viability, T/C (second compound 0.0316 µM, first compound 0.00316 µM): 107%
viability, T/C (second compound 0.0316 µM, first compound 0.01 µM): 92.9%
viability, T/C [1]: 103%
viability, T/C [2]: 103%
viability, T/C [3]: 117%
viability, T/C [4]: 118%
viability, T/C (second compound 0.1 µM, first compound 0.00316 µM): 109%
viability, T/C (second compound 0.1 µM, first compound 0.01 µM): 107%
viability, T/C [5]: 109%
viability, T/C [6]: 105%
viability, T/C [7]: 126%
viability, T/C [8]: 117%
viability, T/C (second compound 0.316 µM, first compound 0.00316 µM): 95.8%
viability, T/C (second compound 0.316 µM, first compound 0.01 µM): 91.4%
viability, T/C [9]: 100%
viability, T/C [10]: 96%
viability, T/C [11]: 114%
viability, T/C [12]: 129%
viability, T/C (second compound 1 µM, first compound 0.00316 µM): 104%
viability, T/C (second compound 1 µM, first compound 0.01 µM): 102%
viability, T/C [13]: 101%
viability, T/C [14]: 104%
viability, T/C [15]: 105%
viability, T/C [16]: 98.9%
viability, T/C (second compound 3.16 µM, first compound 0.00316 µM): 99.4%
viability, T/C (second compound 3.16 µM, first compound 0.01 µM): 93.5%
viability, T/C [17]: 86.6%
viability, T/C [18]: 106%
viability, T/C [19]: 116%
viability, T/C [20]: 87.3%
viability, T/C (second compound 10 µM, first compound 0.00316 µM): 56.5%
viability, T/C (second compound 10 µM, first compound 0.01 µM): 39.5%
viability, T/C [21]: 41.1%
viability, T/C [22]: 50.5%
viability, T/C [23]: 21.3%
viability, T/C [24]: 1.25%

IC50 (second compound 0.0316 µM): < 31.6 nM
IC50 (second compound 0.1 µM): < 31.6 nM
IC50 (second compound 0.316 µM): < 31.6 nM
IC50 (second compound 1 µM): < 31.6 nM
IC50 (second compound 3.16 µM): < 31.6 nM
IC50 (second compound 10 µM): < 31.6 nM
SMILES: CC(=O)OC12COC1CC(O)C1(C)C(=O)C(O)C3=C(C)C(OC(=O)C(O)C(NC(=O)OC(C)(C)C)c4ccccc4)CC(O)(C(OC(=O)c4ccccc4)C21)C3(C)C (stereo not drawn) + C#Cc1c(F)ccc2cc(O)cc(-c3ncc4c(N5CC6CCC(C5)N6)nc(OCC56CCCN5CC(F)C6)nc4c3F)c12
viability, T/C [1]: 12%
viability, T/C [2]: 12.8%
viability, T/C [3]: 12.1%
viability, T/C [4]: 16%
viability, T/C (second compound 0.0316 µM, first compound 3.16 µM): 26.6%
viability, T/C (second compound 0.0316 µM, first compound 10 µM): 27.4%
viability, T/C [5]: 13%
viability, T/C [6]: 12.1%
viability, T/C [7]: 14.1%
viability, T/C [8]: 17.1%
viability, T/C (second compound 0.1 µM, first compound 3.16 µM): 25.5%
viability, T/C (second compound 0.1 µM, first compound 10 µM): 21.1%
viability, T/C [9]: 16.4%
viability, T/C [10]: 15.8%
viability, T/C [11]: 12.1%
viability, T/C [12]: 17.7%
viability, T/C (second compound 0.316 µM, first compound 3.16 µM): 25.2%
viability, T/C (second compound 0.316 µM, first compound 10 µM): 21.3%
viability, T/C [13]: 14.2%
viability, T/C [14]: 12.7%
viability, T/C [15]: 12.8%
viability, T/C [16]: 16.5%
viability, T/C (second compound 1 µM, first compound 3.16 µM): 15.7%
viability, T/C (second compound 1 µM, first compound 10 µM): 24.7%
viability, T/C [17]: 13.3%
viability, T/C [18]: 16.7%
viability, T/C [19]: 16.7%
viability, T/C [20]: 20.4%
viability, T/C (second compound 3.16 µM, first compound 3.16 µM): 24.6%
viability, T/C (second compound 3.16 µM, first compound 10 µM): 27.6%
viability, T/C [21]: 7.03%
viability, T/C [22]: 9%
viability, T/C [23]: 5.98%
viability, T/C [24]: 9.12%
viability, T/C (second compound 10 µM, first compound 3.16 µM): 7.68%
viability, T/C (second compound 10 µM, first compound 10 µM): 7.34%

IC50 (second compound 0.0316 µM): 4.05 nM
IC50 (second compound 0.1 µM): 5.69 nM
IC50 (second compound 0.316 µM): 5.3 nM
IC50 (second compound 1 µM): 5.82 nM
IC50 (second compound 3.16 µM): 5.41 nM
IC50 (second compound 10 µM): 2.06 nM
SMILES: CC1(C)CCC(Nc2ncc(C(F)(F)F)c(-c3c[nH]c4c(P(C)(C)=O)c(C#N)ccc34)n2)CN1 (stereo not drawn) + C#Cc1c(F)ccc2cc(O)cc(-c3ncc4c(N5CC6CCC(C5)N6)nc(OCC56CCCN5CC(F)C6)nc4c3F)c12
viability, T/C [25]: 99.2%
viability, T/C [26]: 56.7%
viability, T/C [27]: 30.9%
viability, T/C [28]: 22%
viability, T/C [29]: 19.6%
viability, T/C [30]: 17.6%
viability, T/C [31]: 92.2%
viability, T/C [32]: 66.7%
viability, T/C [33]: 35.4%
viability, T/C [34]: 26.7%
viability, T/C [35]: 18.4%
viability, T/C [36]: 17.5%
viability, T/C [37]: 91.3%
viability, T/C [38]: 63.7%
viability, T/C [39]: 34.5%
viability, T/C [40]: 28.1%
viability, T/C [41]: 20.4%
viability, T/C [42]: 18.2%
viability, T/C [43]: 86.7%
viability, T/C [44]: 66.1%
viability, T/C [45]: 37.7%
viability, T/C [46]: 24.4%
viability, T/C [47]: 20.6%
viability, T/C [48]: 17.1%
viability, T/C [49]: 87%
viability, T/C [50]: 64.4%
viability, T/C [51]: 34.7%
viability, T/C [52]: 28.9%
viability, T/C [53]: 19.7%
viability, T/C [54]: 19.1%
viability, T/C [55]: 68.7%
viability, T/C [56]: 40.4%
viability, T/C [57]: 25.2%
viability, T/C [58]: 24.3%
viability, T/C [59]: 15.3%
viability, T/C [60]: 13.2%

IC50 (second compound 0.0316 µM): 4.7 nM
IC50 (second compound 0.1 µM): 4.58 nM
IC50 (second compound 0.316 µM): 5.12 nM
IC50 (second compound 1 µM): 4.9 nM
IC50 (second compound 3.16 µM): 5.35 nM
IC50 (second compound 10 µM): 1.04 nM
SMILES: CCc1c2c(nc3ccc(O)cc13)-c1cc3c(c(=O)n1C2)COC(=O)[C@]3(O)CC + C#Cc1c(F)ccc2cc(O)cc(-c3ncc4c(N5CC6CCC(C5)N6)nc(OCC56CCCN5CC(F)C6)nc4c3F)c12
viability, T/C [25]: 109%
viability, T/C [26]: 63.3%
viability, T/C [27]: 30%
viability, T/C [28]: 11.4%
viability, T/C [29]: 9.62%
viability, T/C [30]: 9.76%
viability, T/C [31]: 94.1%
viability, T/C [32]: 61.4%
viability, T/C [33]: 30.9%
viability, T/C [34]: 10.3%
viability, T/C [35]: 8.95%
viability, T/C [36]: 8.77%
viability, T/C [37]: 93%
viability, T/C [38]: 67.7%
viability, T/C [39]: 30.2%
viability, T/C [40]: 8.72%
viability, T/C [41]: 7.89%
viability, T/C [42]: 9.18%
viability, T/C [43]: 86.7%
viability, T/C [44]: 62.4%
viability, T/C [45]: 33.9%
viability, T/C [46]: 11.3%
viability, T/C [47]: 8.52%
viability, T/C [48]: 8.89%
viability, T/C [49]: 87.2%
viability, T/C [50]: 71.3%
viability, T/C [51]: 29%
viability, T/C [52]: 10.9%
viability, T/C [53]: 9.14%
viability, T/C [54]: 8.78%
viability, T/C [55]: 51.6%
viability, T/C [56]: 29.9%
viability, T/C [57]: 15%
viability, T/C [58]: 10.1%
viability, T/C [59]: 9.3%
viability, T/C [60]: 7.33%
